pKi: −log10 of the molar value.

Cannabinoid receptor 2, sequence (P34972 whole entry): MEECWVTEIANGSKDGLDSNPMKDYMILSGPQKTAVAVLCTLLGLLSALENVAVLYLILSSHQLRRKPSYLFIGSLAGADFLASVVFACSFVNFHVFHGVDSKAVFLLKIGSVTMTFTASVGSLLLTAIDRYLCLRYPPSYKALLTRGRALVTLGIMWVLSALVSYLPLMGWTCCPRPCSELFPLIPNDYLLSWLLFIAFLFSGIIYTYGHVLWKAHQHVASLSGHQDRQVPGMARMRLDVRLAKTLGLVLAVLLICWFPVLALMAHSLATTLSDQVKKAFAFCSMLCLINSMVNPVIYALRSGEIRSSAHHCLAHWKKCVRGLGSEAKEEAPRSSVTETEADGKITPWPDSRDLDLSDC

This test concerns the target Cannabinoid receptor 2 (Homo sapiens, UniProt P34972). Description: Displacement of [3H]CP-55,940 from human CB2 receptor after 1 hr by competitive binding assay.
The compound `Cc1ccc(Cn2cc(/C=C/[C@@H]3C(C)(C)[C@@H]4CC[C@@]3(C)C4)cc2-c2ccc(Cl)c(C)c2)cc1` had a pKi of 5.91.

`Cc1ccc(Cn2nc(C(=O)N[C@@H]3C[C@@H]4CC[C@@]3(C)C4(C)C)cc2-c2ccc(Cl)c(C)c2)cc1`: the pKi is 7.54.

For the compound `Cc1cc(-c2cc(C(=O)N[C@@H]3C(C)(C)[C@@H]4CC[C@@]3(C)C4)nn2-c2ccccc2)ccc1Cl`, the pKi is 7.03. This pKi is 0.51 log units lower than that of the compound before.

For `Cc1ccc(Cn2nc(/C=C/[C@@H]3C(C)(C)[C@@H]4CC[C@@]3(C)C4)cc2-c2ccc(Cl)c(C)c2)cc1` (relative stereo), the pKi is 6.28.

Compound `Cc1ccc(Cn2cc(C(=O)N[C@@H]3C(C)(C)[C@@H]4CC[C@@]3(C)C4)cc2-c2ccc(Cl)c(C)c2)cc1` (relative stereo) had a pKi of 7.82. This pKi is 1.54 log units higher than that of the compound before.
